Results: US8932597B2 (priority 2008, dated 2015)

Key:
HuM2e antibody 23K12 = assay type: binding, human
[1] = tested on: anti-M2 human monoclonal antibody Z3G1; assay type: binding

Row | Substance | Signal (peptides that bind to 23K21 and 8I10) (HuM2e antibody 23K12) | Signal (peptides that show specific binding to Z3G1) [1] | Signal (peptides that bind to Z3G1) [1]
1 | 690 (SLLTEVHTPIRNEWGCRCNDSSD; epitope peptide) [compound 690] | 722 | 2057 | 
2 | 342 (SLLTEVETPIRNEWGCRCNSSSD; epitope peptide) [compound 342] | 1637 |  | 2440
3 | 383 (CSLLTEVGCSLLTEC; epitope peptide) [compound 383] | 1380 |  | 2486
4 | 600 (SLLTEVETPIRNEWGLRCNDSSD; epitope peptide) [compound 600] | 831 | 2389 | 
5 | 535 (SLLTEVETPIRNEWGCRCNFSSD; epitope peptide) [compound 535] | 963 |  | 2509
6 | 701 (SLLTEVETPIRNEWGCKCNDSSD; epitope peptide) [compound 701] | 715 | 2290 | 
7 | 353 (SLLTEVGCSLLTEC; epitope peptide) [compound 353] | 1556 | 2380 | 
8 | 632 (SLLTEVETPIRNEWGCRCVDSSD; epitope peptide) [compound 632] | 775 |  | 2366
9 | 459 (SLITEVETPIRNEWGCRCNDSSD; epitope peptide) [compound 459] | 1277 | 1996 | 
10 | 575 (SLLTEVRTPIRNEWGCRCNDSSD; epitope peptide) [compound 575] | 866 | 1024 | 
11 | 400 (SLLTEVETPIRNEWGCRCNVSSD; epitope peptide) [compound 400] | 865 |  | 2476
12 | 605 (SLLTEVETPIRNMWGCRCNDSSD; epitope peptide) [compound 605] | 820 | 2455 | 
13 | 544 (SLLTEVETPIRNEWGCRCRDSSD; epitope peptide) [compound 544] | 924 |  | 2447
14 | 621 (SLLTEVEFPIRNEWGCRCNDSSD; epitope peptide) [compound 621] | 805 | 2297 | 
15 | 403 (SLLTEVETPIRNEWGCRCNDCSD; epitope peptide) [compound 403] | 772 |  | 2318
16 | 675 (SLLTEVNTPIRNEWGCRCNDSSD; epitope peptide) [compound 675] | 732 | 2150 | 
17 | 396 (SLLTEVETPIRNEWGCRCNPSSD; epitope peptide) [compound 396] | 849 |  | 2445
18 | 543 (MSLLTCVGMSLLTEV; epitope peptide) [compound 543] | 925 |  | 2627
19 | 387 (SLLTEVETPIRTEWGCRCNDSSD; epitope peptide) [compound 387] | 1365 | 2360 | 

Row | Substance | Signal (peptides that bind to 23K21 and 8I10) (HuM2e antibody 23K12) | Signal (peptides that show specific binding to Z3G1) [1] | Signal (peptides that bind to Z3G1) [1]
20 | 639 (SLLTEVETPIRNEWGCFCNDSSD; epitope peptide) [compound 639] | 767 | 2312 | 
21 | 303 (CSLLTEVGMCLLTEV; epitope sequence) [compound 303] | 1941 |  | 2618
22 | 667 (SLLTEVETPIRNEWGIRCNDSSD; epitope peptide) [compound 667] | 739 | 2211 | 
23 | 314 (SLLTEVGSLLCEV; epitope peptide) [compound 314] | 1834 | 2392 | 
24 | 312 (TLLTEVETPIRNEWGCRCNDSSD; epitope peptide) [compound 312] | 1855 | 2510 | 
25 | 334 (CSLLTEVGMSLCTEV; epitope peptide) [compound 334] | 1682 |  | 2857
26 | 524 (SLLTEVETPIDNEWGCRCNDSSD; epitope peptide) [compound 524] | 1001 | 2337 | 
27 | 454 (SLLTEVETPIMNEWGCRCNDSSD; epitope peptide) [compound 454] | 1308 | 2369 | 
28 | 415 (SLLTEVETPIRNEWGCRCNDRSD; epitope peptide) [compound 415] | 860 |  | 2502
29 | 658 (SLLTEVYTPIRNEWGCRCNDSSD; epitope peptide) [compound 658] | 751 | 1092 | 
30 | 330 (SLLTEVETPIRNEWGCRCNDYSD; epitope peptide) [compound 330] | 1694 |  | 2445
31 | 395 (SLLTEVETPIRNEWGCRCNNSSD; epitope peptide) [compound 395] | 926 |  | 2502
32 | 408 (SLLTEVETPIRNEWGCRCNDISD; epitope peptide) [compound 408] | 962 |  | 2527
33 | 580 (SLCTEVGCSLLTEV; epitope peptide) [compound 580] | 858 | 2382 | 
34 | 501 (SLLTEVETPIRNEWGCCCNDSSD; epitope peptide) [compound 501] | 1065 | 2515 | 
35 | 436 (SLLTEVETPI; epitope peptide) [compound 436] | 1084 |  | 2465
36 | 586 (SLLTEVETPIRNEWGCRCNISSD; epitope peptide) [compound 586] | 851 |  | 2517
37 | 339 (MSLLTECGMSLLTEV; epitope peptide) [compound 339] | 1658 |  | 2170
38 | 510 (SLRTEVETPIRNEWGCRCNDSSD; epitope peptide) [compound 510] | 1047 | 1034 | 

Row | Substance | Signal (peptides that bind to 23K21 and 8I10) (HuM2e antibody 23K12) | Signal (peptides that show specific binding to Z3G1) [1] | Signal (peptides that bind to Z3G1) [1]
39 | 407 (SLLTEVETPIRNEWGCRCNDHSD; epitope peptide) [compound 407] | 1200 |  | 2537
40 | 637 (SLLTEVETPIRNENGCRCNDSSD; epitope peptide) [compound 637] | 768 | 2265 | 
41 | 410 (SLLTEVETPIRNEWGCRCNDLSD; epitope peptide) [compound 410] | 769 |  | 2494
42 | 599 (SLLTEVERPIRNEWGCRCNDSSD; epitope peptide) [compound 599] | 834 | 2131 | 
43 | 525 (SLLTEVGCSCLCEV; epitope peptide) [compound 525] | 996 | 1829 | 
44 | 576 (SLLTEVETPIFNEWGCRCNDSSD; epitope peptide) [compound 576] | 862 | 2176 | 
45 | 327 (SLMTEVETPIRNEWGCRCNDSSD; epitope peptide) [compound 327] | 1729 | 2149 | 
46 | 476 (CSLLTEVGCSCLCEV; epitope peptide) [compound 476] | 1206 |  | 1680
47 | 380 (SLLTEVETPIRNTWGCRCNDSSD; epitope peptide) [compound 380] | 1409 | 2314 | 
48 | 695 (SLLTEVEVPIRNEWGCRCNDSSD; epitope peptide) [compound 695] | 719 | 2286 | 
49 | 287 (MSLLTEVGMSLLTEV; epitope peptide) [compound 287] | 2267 |  | 2878
50 | 638 (SLLTEVETPIRNEWGTRCNDSSD; epitope peptide) [compound 638] | 767 | 2404 | 
51 | 598 (SLLTEVETPIRNEWGCRKNDSSD; epitope peptide) [compound 598] | 835 | 2435 | 
52 | 664 (SLLTEVETPIRNEWGNRCNDSSD; epitope peptide) [compound 664] | 746 | 2328 | 
53 | 666 (SLLTEVETPIRNAWGCRCNDSSD; epitope peptide) [compound 666] | 743 | 2334 | 
54 | 434 (SLLTEVETPIRNEWGCRCNDSYD; epitope peptide) [compound 434] | 862 |  | 2479
55 | 696 (SLLTEVETPIRNEHGCRCNDSSD; epitope peptide) [compound 696] | 719 | 2398 | 
56 | 597 (SLLTEVETGIRNEWGCRCNDSSD; epitope peptide) [compound 597] | 835 | 2366 | 
57 | 432 (SLLTEVETPIRNEWGCRCNDSVD; epitope peptide) [compound 432] | 728 |  | 2232
